Results as given in patent publication US10508120B2, “TYK2 inhibitors and uses thereof” (Nimbus Lakshmi, Inc., priority 2017, dated 2019).
pKd: −log10 of the molar value.

Tests used:
Tyk2 kinase domain (DH1) = Tyk2 kinase domain (DH1) (Homo sapiens (Human), UniProt P29597); experiment: Tyk2 Radioactive Kinase Assay; type: biochemical; conditions: compound at 10 μM, ATP 10 μM; for inhibition at 10 µM: read-out: Tyk2 JH1% Inhibition @ 10 μM
Summary of the method: (§1)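 Values are single-concentration percent inhibition figures. They were obtained with 10 μM compound in a radioactivity-based kinase assay run separately on each enzyme.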

[1] = target: human TYK2 (JH2domain-pseudokinase) (Homo sapiens (Human), UniProt P29597); experiment: TYK2 JH2 Domain Binding Assay (KINOMEscan)
Summary of the method: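 Pseudokinase domain binding was measured by qPCR of tagged, bead-retained kinase after 1 h room-temperature competition, with 0.9% DMSO and compound up to 30,000 nM in 3-fold steps. Hill-equation Kd, duplicate.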

JAK2 kinase domain (JH1) = JAK2 kinase domain (JH1) (Homo sapiens (Human), UniProt O60674); experiment: JAK2 Radioactive Kinase Assay; type: biochemical; conditions: compound at 10 μM, ATP 10 μM; for inhibition at 10 µM: read-out: JAK2 JH1% Inhibition @ 10 μM
Summary of the method: as §1

Tyk2 kinase domain (DH1), sequence (P29597 897-1176): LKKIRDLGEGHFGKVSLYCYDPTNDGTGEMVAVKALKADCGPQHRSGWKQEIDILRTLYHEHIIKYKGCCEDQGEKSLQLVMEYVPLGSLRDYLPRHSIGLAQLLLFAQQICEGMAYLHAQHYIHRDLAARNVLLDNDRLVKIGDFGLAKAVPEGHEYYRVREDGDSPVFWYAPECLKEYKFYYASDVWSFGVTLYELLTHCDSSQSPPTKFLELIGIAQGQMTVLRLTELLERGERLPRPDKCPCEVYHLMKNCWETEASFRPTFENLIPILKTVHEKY
human TYK2 (JH2domain-pseudokinase), sequence (P29597 556-888): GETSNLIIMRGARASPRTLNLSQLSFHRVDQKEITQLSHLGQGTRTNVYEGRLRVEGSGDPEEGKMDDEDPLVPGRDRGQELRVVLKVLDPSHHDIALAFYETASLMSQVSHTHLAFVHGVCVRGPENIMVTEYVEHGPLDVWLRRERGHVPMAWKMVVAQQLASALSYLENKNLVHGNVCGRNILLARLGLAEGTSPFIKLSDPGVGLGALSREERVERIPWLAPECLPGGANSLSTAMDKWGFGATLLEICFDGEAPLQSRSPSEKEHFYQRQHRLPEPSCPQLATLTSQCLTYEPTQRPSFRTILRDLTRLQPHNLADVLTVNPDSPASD
JAK2 kinase domain (JH1), sequence (O60674 849-1124): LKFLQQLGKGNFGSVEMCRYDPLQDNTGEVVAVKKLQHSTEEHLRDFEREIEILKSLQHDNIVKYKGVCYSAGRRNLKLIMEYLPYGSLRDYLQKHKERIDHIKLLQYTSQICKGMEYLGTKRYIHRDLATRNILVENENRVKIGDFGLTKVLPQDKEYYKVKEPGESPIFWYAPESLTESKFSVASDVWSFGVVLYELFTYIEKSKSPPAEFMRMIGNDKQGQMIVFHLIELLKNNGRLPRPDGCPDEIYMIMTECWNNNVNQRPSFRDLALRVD

| SMILES | inhibition at 10 µM (Tyk2 kinase domain (DH1)) | pKd [1] | inhibition at 10 µM (JAK2 kinase domain (JH1)) | Tyk2 JH1% Inhibition @ 10 μM (Tyk2 kinase domain (DH1)) | JAK2 JH1% Inhibition @ 10 μM (JAK2 kinase domain (JH1)) |
| --- | --- | --- | --- | --- | --- |
| CNc1cc(Nc2c(F)ccn(C(C)C)c2=O)nc2c(C(=O)NC3CC3)cnn12 [I-623] | < 50% | 8.00 to 9.00 | < 50% |  |  |
| CNc1cc(Nc2c(F)ccn(-c3nccs3)c2=O)nc2c(C(=O)N[C@H]3C[C@H]3F)cnn12 [I-624] | 70 to 90% | 9.00 to 9.70 | < 50% |  |  |
| CNc1cc(Nc2cccn(C3CCN(CCC#N)CC3)c2=O)nc2c(C(=O)N[C@H]3C[C@H]3F)cnn12 [I-628, -((1-(1-(2-cyanoethyl)piperidin-4-yl)-2-oxo-1,2-dihydropyridin-3-yl)amino)-N-((1R,2S)-2-fluorocyclopropyl)-7-(methylamino)pyrazolo[1,5-a]pyrimidine-3-carboxamide] | < 50% | > 9.70 | < 50% |  |  |
| CNc1cc(-c2cn(C(C)C)c3ncccc23)nc2c(C(=O)NC3CC4(COC4)C3)cnn12 [I-629, 5-(1-isopropyl-1H-pyrrolo[2,3-b]pyridin-3-yl)-7-(methylamino)-N-(2-oxaspiro[3.3]heptan-6-yl)pyrazolo[1,5-a]pyrimidine-3-carboxamide] | < 50% | 9.00 to 9.70 | < 50% |  |  |
| CNc1cc(Nc2ccc3c(n2)CCO3)nc2c(C(=O)NC3CC3)cnn12 [I-631] | < 50% | 9.00 to 9.70 | < 50% |  |  |
| CNc1cc(Nc2ccc3c(n2)CCO3)nc2c(C(=O)N[C@H]3C[C@H]3F)cnn12 [I-632] | < 50% | > 9.70 | < 50% |  |  |
| CNc1cc(Nc2cccn(-c3cnn(C)c3)c2=O)nc2c(C(=O)NCC(C)CO)cnn12 (stereo not drawn) [I-633] | < 50% | > 9.70 | < 50% |  |  |
| CNc1cc(Nc2cccc([C@H]3CCCOC3)n2)nc2c(C(=O)N[C@H]3CC[C@H]3O)cnn12 [I-642] | < 50% | > 9.70 | < 50% |  |  |
| CNc1cc(Nc2cccc([C@@H]3CCCOC3)n2)nc2c(C(=O)N[C@@H]3CC[C@@H]3O)cnn12 [I-643] |  | 9.00 to 9.70 |  | A (percent inhibition at 10 μM lower than 50) | A (percent inhibition at 10 μM lower than 50) |
| CNc1cc(Nc2cccc([C@H]3CCCCO3)n2)nc2c(C(=O)N[C@@H]3CC[C@@H]3O)cnn12 [I-648] |  | 9.00 to 9.70 |  | A (percent inhibition at 10 μM lower than 50) | A (percent inhibition at 10 μM lower than 50) |
| CNc1cc(Nc2cccn([C@H]3CCCOC3)c2=O)nc2c(C(=O)N[C@H]3[C@@H]4COC[C@@H]43)cnn12 [I-651] | < 50% | < 8.00 | < 50% |  |  |
| CNc1cc(Nc2cccc(N3CCC4(CCCO4)CC3)n2)nc2c(C(=O)N[C@H]3C[C@H]3F)cnn12 [I-656] | < 50% | > 9.70 | < 50% |  |  |
| CNc1cc(Nc2cccc(N3CCC4(CCCO4)CC3)n2)nc2c(C(=O)N[C@@H]3CC[C@@H]3O)cnn12 [I-657] | < 50% | > 9.70 | < 50% |  |  |
| CNc1cc(Nc2cccn3cnnc23)nc2c(C(=O)N[C@H]3C[C@H]3F)cnn12 [I-660] | < 50% | > 9.70 | < 50% |  |  |
| CNc1cc(Nc2cccn3cnnc23)nc2c(C(=O)N[C@@H]3CC[C@@H]3O)cnn12 [I-662] | < 50% | > 9.70 | < 50% |  |  |
| CNc1cc(Nc2cccn(-c3cnn(C)c3)c2=O)nc2c(C(=O)NC[C@@H](C)CO)cnn12 [I-669] | < 50% | > 9.70 | < 50% |  |  |
| CNc1cc(Nc2cccn(C3CCOCC3)c2=O)nc2c(C(=O)N[C@@H]3COC[C@@H]3O)cnn12 [I-674] | < 50% | 9.00 to 9.70 | < 50% |  |  |
| CNc1cc(-c2cn(CCN3CCOCC3)c3ncccc23)nc2c(C(=O)N[C@@H]3CC[C@@H]3O)cnn12 [I-678] | < 50% | 9.00 to 9.70 | < 50% |  |  |
| CNc1cc(Nc2cccn([C@@H]3CCN(C)C[C@H]3F)c2=O)nc2c(C(=O)NC3CC3)cnn12 [I-686] | < 50% | 9.00 to 9.70 | < 50% |  |  |

More lines, main results first:

| inhibition at 10 µM (Tyk2 kinase domain (DH1)) | pKd [1] | inhibition at 10 µM (JAK2 kinase domain (JH1)) | SMILES | Tyk2 JH1% Inhibition @ 10 μM (Tyk2 kinase domain (DH1)) | JAK2 JH1% Inhibition @ 10 μM (JAK2 kinase domain (JH1)) |
| --- | --- | --- | --- | --- | --- |
| < 50% | > 9.70 | < 50% | CNc1cc(Nc2cccc(N3CC(O)C3)n2)nc2c(C(=O)NC3CC3)cnn12 [I-620] |  |  |
| < 50% | 9.00 to 9.70 | < 50% | CNc1cc(Nc2cccn([C@H]3CCC[C@@H](OC)C3)c2=O)nc2c(C(=O)NC3CC3)cnn12 [I-622] |  |  |
| < 50% | > 9.70 | < 50% | CNc1cc(Nc2cc(F)cn(C3CCN(C)CC3)c2=O)nc2c(C(=O)NC3CC3)cnn12 [I-625] |  |  |
| < 50% | > 9.70 | < 50% | CNc1cc(Nc2cc(F)cn(C3CCN(C)CC3)c2=O)nc2c(C(=O)N[C@H]3C[C@H]3F)cnn12 [I-626] |  |  |
| < 50% | > 9.70 | < 50% | CNc1cc(Nc2cccn([C@H]3CCN(C)C[C@H]3F)c2=O)nc2c(C(=O)NC3CC3)cnn12 [I-627] |  |  |
| < 50% | > 9.70 | < 50% | CNc1cc(Nc2cccc([C@H]3CCCOC3)n2)nc2c(C(=O)N[C@@H]3COC[C@@H]3O)cnn12 [I-634] |  |  |
|  | 9.00 to 9.70 |  | CNc1cc(-c2cn(C(C)C)c3ncccc23)nc2c(C(=O)N[C@@H]3CC[C@@H]3O)cnn12 [I-638] | A (percent inhibition at 10 μM lower than 50) | A (percent inhibition at 10 μM lower than 50) |
|  | 9.00 to 9.70 |  | CNc1cc(Nc2cccc([C@H]3CCCOC3)n2)nc2c(C(=O)N[C@@H]3CC[C@@H]3O)cnn12 [I-641] | A (percent inhibition at 10 μM lower than 50) | A (percent inhibition at 10 μM lower than 50) |
| < 50% | > 9.70 | < 50% | CNc1cc(Nc2cccc([C@@H]3CCCOC3)n2)nc2c(C(=O)N[C@H]3CC[C@H]3O)cnn12 [I-644] |  |  |
| < 50% | 8.00 to 9.00 | < 50% | CNc1cc(Nc2cccc([C@@H]3CCCCO3)n2)nc2c(C(=O)N[C@H]3CC[C@H]3O)cnn12 [I-645] |  |  |
| < 50% | > 9.70 | < 50% | CNc1cc(Nc2cccc([C@H]3CCCCO3)n2)nc2c(C(=O)N[C@H]3CC[C@H]3O)cnn12 [I-647] |  |  |
| < 50% | > 9.70 | < 50% | CNc1cc(Nc2cccn(C3CCOCC3)c2=O)nc2c(C(=O)NCC(C)CO)cnn12 (stereo not drawn) [I-649] |  |  |
| < 50% | 8.00 to 9.00 | < 50% | CNc1cc(Nc2cccn([C@@H]3CCCOC3)c2=O)nc2c(C(=O)N[C@H]3[C@@H]4COC[C@@H]43)cnn12 [I-650] |  |  |
| < 50% | > 9.70 | < 50% | CNc1cc(Nc2cccn(C3CCN(CCC#N)CC3)c2=O)nc2c(C(=O)NC3CC3)cnn12 [I-652, 5-((1-(1-(2-cyanoethyl)piperidin-4-yl)-2-oo-1,2-dihydropyridin-3-yl)amino)-N-cyclopropyl-7-(methylamino)pyrazolo[1,5-a]pyrimidine-3-carboxamide] |  |  |
| < 50% | > 9.70 | < 50% | CNc1cc(Nc2cccn(-c3nc(C)co3)c2=O)nc2c(C(=O)N[C@@H]3CC[C@@H]3O)cnn12 [I-654] |  |  |
| < 50% | 9.00 to 9.70 | < 50% | CNc1cc(Nc2cccc(N3CCC4(CCCO4)CC3)n2)nc2c(C(=O)NC3CC3)cnn12 [I-655] |  |  |
| < 50% | > 9.70 | < 50% | CNc1cc(Nc2cccn3cnnc23)nc2c(C(=O)NC3CC3)cnn12 [I-659] |  |  |
| < 50% | > 9.70 | < 50% | CNc1cc(Nc2cccn(-c3nc(C)co3)c2=O)nc2c(C(=O)NCC(C)CO)cnn12 (stereo not drawn) [I-663] |  |  |
| < 50% | > 9.70 | < 50% | CNc1cc(Nc2cccn(-c3cnn(C)c3)c2=O)nc2c(C(=O)NC[C@H](C)CO)cnn12 [I-668] |  |  |
| < 50% | > 9.70 | < 50% | CNc1cc(Nc2cccn([C@@H]3CCCC[C@@H]3O)c2=O)nc2c(C(=O)NC3CC3)cnn12 [I-671] |  |  |
| < 50% | > 9.70 | < 50% | CNc1cc(Nc2cccn(-c3ncc(OC)cc3F)c2=O)nc2c(C(=O)NC3CC3)cnn12 [I-672] |  |  |
| < 50% | > 9.70 | < 50% | CNc1cc(Nc2cccc(N3CCCC3=O)n2)nc2c(C(=O)N[C@@H]3CC[C@@H]3O)cnn12 [I-679] |  |  |
| < 50% | 9.00 to 9.70 | < 50% | CNc1cc(Nc2cccn(-c3ccccn3)c2=O)nc2c(C(=O)NCC(C)CO)cnn12 (stereo not drawn) [I-682] |  |  |
| < 50% | > 9.70 | < 50% | CNc1cc(Nc2cccn(-c3ccccn3)c2=O)nc2c(C(=O)NCC(C)(C)CO)cnn12 [I-683, N-(3-hydroxy-2,2-dimethylpropyl)-7-(methylamino)-5-((2-oxo-2H-[1,2′-bipyridin]-3-yl)amino)pyrazolo[1,5-a]pyrimidine-3-carboxamide] |  |  |
| < 50% | 9.00 to 9.70 | < 50% | CNc1cc(Nc2cccn(-c3ccccn3)c2=O)nc2c(C(=O)NCC3(CO)CC3)cnn12 [I-684] |  |  |
